Entries after “also recorded” stand apart in the source; their conditions may differ.
What was measured:
eIF4A [1] = biological target: T1, eIF4A (Homo sapiens, UniProt P60842); test: Cellular Thermal Shift Assay (CETSA) in A549 cells; type: cell-based; parameters: endogenous in cells; host or cells: A549 cells; conditions: 90 min, 55° C., silvestrol 100 nM
Description: In CETSA, thermal stability of a protein is assessed by heating cells and then separating insoluble, aggregated, or denatured proteins from soluble proteins through supernatant/pellet fractionation. Levels of the protein of interest (eIF4A) remaining in the soluble fraction are then measured by western blot. The principle of CETSA is similar to differential scanning fluorimetry (DSF), in that thermal stability and solubility of a protein increases upon binding a ligand.
Cellular Thermal Shift Assay (CETSA). A549 cells were seeded into wells in 6-well plates and on the following day were exposed to 28 or silvestrol (100 nM) for 90 min. Cells were harvested, resuspended in 50 μL DMEM, and dispensed into thin-walled PCR tubes. Cells were subjected to 3 min of heat at 55° C. in a thermocycler (miniPCR). After heating, cells were left to cool for 3 min and then snap-frozen on dry ice. Cells were subjected to 3 rapid freeze thaws with 15 seconds of vortexing after each thaw. After the first thaw, 1 μL of a dissolved Pierce protease inhibitor tablet (ThermoFisher—A32963) was added to the cell lysate. Cell lysates were centrifuged at 20,000×g for 20 min. […] All immunoblot images were taken using the Azure 600 imaging system (Azure Biosystems) and analyzed using ImageJ 1.51s (NIH). […]
Target sequence in this assay (P60842 2-406): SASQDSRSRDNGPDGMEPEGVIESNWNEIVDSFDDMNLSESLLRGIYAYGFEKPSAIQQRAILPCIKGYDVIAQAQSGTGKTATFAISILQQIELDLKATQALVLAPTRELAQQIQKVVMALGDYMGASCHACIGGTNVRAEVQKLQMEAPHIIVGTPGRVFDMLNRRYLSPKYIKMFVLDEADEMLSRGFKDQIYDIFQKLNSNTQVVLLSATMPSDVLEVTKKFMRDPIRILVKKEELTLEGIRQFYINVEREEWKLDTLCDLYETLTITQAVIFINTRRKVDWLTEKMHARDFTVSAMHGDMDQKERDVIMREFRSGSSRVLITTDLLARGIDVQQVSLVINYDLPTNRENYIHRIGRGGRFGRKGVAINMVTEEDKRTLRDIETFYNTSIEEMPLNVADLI

eIF4A [2] = biological target: T1, eIF4A; test: Thermal Shift Assay (TSA)/Differential Scanning Fluorimetry (DSF); type: binding; parameters: 6xHis with TEV protease site (N, cleaved yes); made in house; host or cells: E. coli BL21-CodonPlus; conditions: 5 μM eIF4A, 2 mM AMPPNP
Description: Further evidence of this was uncovered in a thermal shift assay (TSA) using DSF with eIF4A and compound 28. […] Larger doses of compound 28 caused larger melting temperature (Tm) shifts in this assay, which argues that compound 28 is directly binding eIF4A.
Thermal Shift Assay (TSA)/Differential Scanning Fluorimetry (DSF). TSA/DSF experiments were performed on a Lightcycler 480 II (Roche Molecular Systems). eIF4A (5 μM) in buffer (20 mM Tris (pH 7.5), 10% glycerol, 0.1 mM EDTA, 2 mM DTT, 2 mM AMPPNP, 4% DMSO) was added to 96-well PCR plates (USA Scientific, Inc.) with or without compound. After a 5 min incubation, SYPRO orange dye was added to a final concentration of 5×. Samples were melted over a gradient from 20 to 85° C. with 20 acquisitions per ° C. at a ramp rate of 0.03° C./s.
Target sequence in this assay (P60842 whole entry): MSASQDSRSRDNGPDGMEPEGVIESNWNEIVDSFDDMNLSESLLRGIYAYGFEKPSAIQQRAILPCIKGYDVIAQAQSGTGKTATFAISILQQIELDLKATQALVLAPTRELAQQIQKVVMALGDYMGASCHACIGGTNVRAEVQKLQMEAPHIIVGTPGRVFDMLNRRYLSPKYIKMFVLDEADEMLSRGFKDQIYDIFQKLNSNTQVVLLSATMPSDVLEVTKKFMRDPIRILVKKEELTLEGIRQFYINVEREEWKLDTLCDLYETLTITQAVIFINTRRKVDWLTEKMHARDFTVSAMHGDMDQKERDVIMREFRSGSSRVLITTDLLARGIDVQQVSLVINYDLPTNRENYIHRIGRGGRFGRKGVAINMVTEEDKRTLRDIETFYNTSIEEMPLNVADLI

CCCCc1ccc(-c2ccc(-c3cc(C(=O)O)c4cc([N+](=O)[O-])ccc4n3)o2)cc1 [Compound 28, 2-(5-(4-butylphenyl)furan-2-yl)-6-nitroquinoline-4-carboxylic acid]
thermal stability of eIF4A in cells (CETSA) (eIF4A [1]): dose-dependent increase in thermal stability of eIF4A; also recorded: engages eIF4A in cells | eIF4A thermal stability / melting temperature (TSA) (eIF4A [2]): increased eIF4A stability

Reference: patent US20240360107A1, “AN EIF4A INHIBITOR WITH A NOVEL MECHANISM OF ACTION” (ARIZONA BOARD OF REGENTS ON BEHALF OF THE UNIVERSITY OF …, priority 2021, published 2024)
